Assay [1] deals with epimastigote forms of Y strain (TcII). As to the kind of experiment: Epimastigote cell viability assay (MTS/PMS), Y strain. The format is cell-based, Trypanosoma cruzi. The method, then:
(§1) Epimastigote forms of three strains of T. cruzi, including Dm28c (TcI), CL Brener (TcVI), and Y strain (TcII), were maintained in liver infusion tryptose (LIT) medium supplemented with 10% fetal bovine serum at 28°C [16] were kindly provided by Oswaldo Cruz Institute/Fiocruz. For the experiments, exponential phase cultures were used. All assays were performed in triplicates in 96-well plates.
(§2) The absorbance of the formazan was measured at 490 nm using a microplate reader (Asys Expert Plus -Biochrom). In parallel, we determined the effect of 1% DMSO (negative control) and benznidazole (positive control) on the viability of epimastigotes and a replicate of each treatment was performed by fixing the epimastigotes with 4% paraformaldehyde prior to the addition of MTS/PMS (basal absorbance control).
(§3) The 50% cytotoxic concentration (CC50), x % inhibitory concentration (ICx = IC25, IC50, IC75, or IC90), and 50% lethal concentration (LC50) values were obtained from the percentage of inhibition/death versus log concentration of each compound, by nonlinear regression with variable slope and automatic withdrawal of outliers with ROUT coefficient (Q = 5). […] Graphpad Prism software version 7.04 was used for all regressions.

Assay [2] concerns epimastigote forms of strain Dm28c. As to the kind of experiment: Inhibition of metacyclogenesis. Particulars: Trypanosoma cruzi, 2 h exposure, then 72 h in drug-free medium, p = 0.009, read-out: less trypomastigotes than control (inhibition of metacyclogenesis). The format is cell-based. The method, then:
After the stress, the cells were washed and incubated with TAU drug-free supplemented with 10 mM L-proline, 50 mM L-sodium glutamate, 2 mM L-sodium aspartate and 10 mM D-glucose (TAU3AAG medium) for 72 h. The total number of differentiated trypomastigotes was counted in Neubauer's chamber to assess the inhibition percentage.

Assay [3] has as its system epimastigotes of T. cruzi (Dm28c, TcI). Description: Epimastigote cell viability assay (MTS/PMS), Dm28c. The format is cell-based, Trypanosoma cruzi. The method, then: as §1
The effect of the isolated compounds on the viability of epimastigote forms of Dm28c strain was determined by MTS [3-(4,5-dimethylthiazol-2-yl)-5-(3-carboxymethoxyphenyl)-2-(4-sulfophenyl)-2H-tetrazolium bromide] with PMS (5-methyl-phenazinium methyl sulfate) colorimetric assay, as described by Nunes et al.. […]
as §2, §3

For assay [4], the system named is amastigotes of T. cruzi (Dm28c). Also noted: method as in PMID 32327956. Particulars: 24 h of treatment; cited from earlier work.
Assay [5] deals with trypomastigote forms of the parasite (Dm28c). Description: microbe, parasite or virus in culture. The format is cell-based. The method, then:
Cell-derived trypomastigotes (Dm28c) were obtained from the supernatant of infected Vero cell cultures. Vero cells (9 × 10^5 cells/mL) and trypomastigotes were seeded at a ratio of 1:10 into culture bottles (75 cm^2) containing DMEM. After 4 h of incubation, the bottles were washed to remove unadhered trypomastigotes and incubated for another 96 h under CO2 atmosphere at 37°C. After 96 h of incubation, new trypomastigote forms were collected from the supernatant and used to perform the assays.
The lysis assay was performed in 96-well plates in technical triplicates (4 concentrations within the range 4–250 μM for butanolides and 200–1,600 μM for benznidazole), and the trypomastigotes (1 x 10^6 parasites/well) were incubated in 200 μL of DMEM (supplemented with 10% FBS, 100 μg/mL streptomycin, and 100 IU/mL penicillin) with the compounds at 37°C for 4 h. The test, negative control (1% DMSO), and positive control (benznidazole) parasites were fixed and counted in Neubauer's chamber.
as §3

As for `C=C1OC(=O)/C(=C/CCCCCCCCCCCCC)[C@@H]1O` [Isoobtusilactone A, isoobtusilactone A], the IC50 stood at 32.3 µM in assay [1] (Trypanosoma cruzi, 4 h of treatment, read-out: IC50 epimastigotes strain Y) and 10.1 µM in assay [3] (Trypanosoma cruzi, 4 h of treatment, Na = not active, read-out: Epimastigotes (Dm28c) IC50 - 4h (CI)). Further, the “SI (selectivity index)” value was found to be 11.4 in assay [1] (epimastigotes strain Y, 4 h, Vero cells); 36.7 in assay [3] (Vero CC50 4 h versus epimastigote Dm28c IC50 4 h); 12.34 in assay [5] (trypomastigotes Dm28c, 4 h, Vero cells). Moreover, the inhibition at 2.75 µM in assay [2] came out at 43%. In assay [3] (72 h of treatment, Dm28c), the “activity at concentrations below 50 μg/mL in epimastigotes” value is “exhibited activity”. The “inhibition of growth of amastigote forms” value in assay [4] was “more than 70%”. Besides, the LC50 in assay [5] (Trypanosoma cruzi, 4 h of treatment, read-out: LC50 against trypomastigote forms (Dm28c)) amounted to 30.1 µM.

By IC50 is commonly meant the midpoint of a concentration-inhibition curve. What is called inhibition is the change of the read-out against control, counted positive when it falls. One may read the LC50 as the concentration that kills 50% of the test population.
